The record followed here is ChEMBL document CHEMBL4190204, “Trichoderpyrone, a Unique Polyketide Hybrid with a Cyclopentenone-Pyrone Skeleton from the Plant Endophytic Fungus Trichoderma gamsii” (J Nat Prod, 2017).

What all share (format): functional, cell-based
One experiment deals with A549. Nature of the experiment: Cytotoxicity against human A549 cells assessed as reduction in cell viability by MTT assay.
The subject of the next experiment is HepG2. The experiment in a line: Cytotoxicity against human HepG2 cells assessed as reduction in cell viability by MTT assay. On the technique in general: Formazan colour is commonly taken as a measure of viable cells.
A further experiment concerns HeLa. The experiment in a line: Cytotoxicity against human HeLa cells assessed as reduction in cell viability by MTT assay.

Structures are written as SMILES.

What is called IC50 is the concentration that inhibits the measured activity by half. Regarding `COc1cc([C@@H]2c3cc4c(cc3[C@@H](O[C@@H]3O[C@@H]5CO[C@@H](C)O[C@H]5[C@H](O)[C@H]3O)[C@H]3COC(=O)[C@H]23)OCO4)cc(OC)c1O` [ETOPOSIDE], the concentration for half-maximal inhibition (IC50) worked out at 16.6 µM in the experiment on A549, 16.1 µM in the experiment on HepG2 and 15 µM in the experiment on HeLa.

Consider `C=C[C@]1(O)CC(N)=C([C@@H](C)c2c(O)cc(C)oc2=O)C1=O`, for which the IC50 with A549 came out at 16.9 µM; in the experiment on HepG2, 30.8 µM; in the experiment on HeLa, 33.9 µM.
